Among the data in patent US5798352A, “Antithrombotic amidinotetrahydropyridylalanine derivatives” (Pfizer Inc., priority 1995, dated 1998) are Ki values, retold here.

Counter-ions that a name gives are not always drawn.

A word on the Ki: it is a dissociation constant, usually derived from enzyme kinetics or from competition with a known ligand.

For one test, the target named is T1, trypsin (Bos taurus, UniProt P00760).
T1 construct: from tissue; host or cells: bovine pancreas
T1 sequence (P00760 24-246): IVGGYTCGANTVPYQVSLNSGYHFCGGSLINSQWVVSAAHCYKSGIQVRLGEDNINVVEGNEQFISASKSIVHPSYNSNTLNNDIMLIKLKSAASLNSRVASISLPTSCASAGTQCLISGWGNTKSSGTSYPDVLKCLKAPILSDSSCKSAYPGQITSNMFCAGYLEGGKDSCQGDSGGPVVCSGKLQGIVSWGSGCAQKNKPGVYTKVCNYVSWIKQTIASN
As to the kind of experiment: Chromogenic assay, trypsin inhibition (substrate S2222). The class given is biochemical. The settings on record: in vitro; bovine pancreatic trypsin; Ki calculated from substrate Km and IC50; pH 8.0, 30° C. How it is done: (§1) The biological activities of the compounds of the present invention were determined by the following test methods.
(§2) The inhibition of thrombin, trypsin, plasmin or factor Xa is measured in 96 well plate chromogenic assays. The percentage inhibition and IC50 are calculated from triplicate samples of an 8 concentration dose-response curve. From the substrate Km and IC50, the Ki for each inhibitor is calculated. All assays are carried out in a total incubation of 200 μl of 50 mM HEPES and 150 mM NaCl at pH 8.0, and all compound dilutions are preincubated with enzyme at room temperature for 15 minutes prior to addition of substrate. After 30 minutes incubation at 30° C., the O.D. is measured at […] in a 96 well plate reader. Thrombin activity is measured using bovine thrombin and S2238 (H-D-Phe-Pip-Arg-pNA), bovine pancreatic trypsin is assayed with S2222 (Benz-Isoleu-Glu-Gly-Arg-pNA), bovine plasma plasmin is assayed with Chromozym PL (Tosyl-Gly-Pro-Lys-pNA)and bovine fac or Xa is assayed in 50 mM Tris, 150 mM NaCl, pH 7.5 buffer with S2222.

The next test concerns the target thrombin (Bos taurus, UniProt P00735). As to the kind of experiment: Chromogenic assay, thrombin inhibition (substrate S2238). The class given is biochemical. The following applies: in vitro; bovine thrombin; Ki calculated from substrate Km and IC50; pH 8.0, 30° C. How it is done: as §1, §2

Turning to `C[C@@H]1CCN(C(=O)[C@H](CC2=CCCN(C(=N)N)C2)NS(=O)(=O)c2ccc3c(c2)CN(C)CC3)[C@H](C(=O)O)C1` [Example 5, 4(R)-Methyl-1-[N-(2-methyl-1,2,3,4-tetrahydroisoquinoline-7-sulphonyl)-3-(1-amidino-1,2,5,6-tetrahydro-3-pyridyl)-(S)-alanyl]piperidine-2(S-carboxylicacid dihydrochloride], the Ki on trypsin was 2400 nM; on thrombin, 1.9 nM.

On to `C[C@H]1CCN(C(=O)[C@H](CC2=CCCN(C(=N)N)C2)NS(=O)(=O)c2ccc3c(c2)CN(C)CC3)[C@@H](C(=O)O)C1` [Example 6, 4(S)-Methyl-1-[N-(2-methyl-1,2,3,4-tetrahydroisoquinoline-7-sulphonyl)-3-(1-amidino-1,2,5,6-tetrahydro-3-pyridyl)-(S)-alanyl]piperidine-2(R)-carboxylic acid dihydrochloride], for which the figures for the Ki at trypsin and at thrombin were 690 nM and 9.9 nM, respectively.
